Assay results from patent US9695155B2, “Herbicidal substituted pyrimidinyloxy benzene compounds” (E. I. DU PONT DE NEMOURS AND COMPANY, priority 2013, dated 2017).

Columns and labels:
giant foxtail [1] = experiment: Test A postemergence; type: in vivo, Setaria faberii; conditions: 0 to 100 scale where 0 is no effect and 100 is complete control
Procedure, shortened: (§1)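 Visual injury scored 0–100 (100 = complete control) against untreated controls about 10 days after treatment in a greenhouse. Test chemicals, formulated with surfactant in non-phytotoxic solvent, were sprayed on soil preemergence or on 2-10 cm, one- to two-leaf plants postemergence.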

corn [2] = experiment: Test A postemergence; type: in vivo, Zea mays
Procedure, shortened: as §1

corn [3] = experiment: Test C preemergence; type: in vivo, Zea mays; conditions: for Corn plant response rating: preemergence; for Plant response rating, Corn: Preemergence, 31 g ai/ha, scale 0 to 100, 0 no effect, 100 complete control
Procedure, shortened: (§2)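 Seeds are planted in blended loam soil and sand and treated preemergence, while seedlings in a peat moss/vermiculite medium receive postemergence sprays at 2 to 18 cm height. All plants stay in the greenhouse for 13 to 15 days before visual comparison with controls on a 0–100 scale.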

large (Lg) crabgrass = experiment: Test C preemergence; type: in vivo, Digitaria sanguinalis; conditions: for Crabgrass, Large plant response rating: preemergence; for Plant response rating, Crabgrass, Large: Preemergence, 31 g ai/ha, scale 0 to 100, 0 no effect, 100 complete control
Procedure, shortened: as §2

lambsquarters = experiment: Test C preemergence; type: in vivo, Chenopodium album; conditions: for Lambsquarters plant response rating: preemergence; for Plant response rating, Lambsquarters: Preemergence, 31 g ai/ha, scale 0 to 100, 0 no effect, 100 complete control
Procedure, shortened: as §2

pigweed = experiment: Test C preemergence; type: in vivo, Amaranthus retroflexus; conditions: for Pigweed plant response rating: preemergence; for Plant response rating, Pigweed: Preemergence, 31 g ai/ha, scale 0 to 100, 0 no effect, 100 complete control
Procedure, shortened: as §2

blackgrass = experiment: Test C postemergence; type: in vivo, Alopecurus myosuroides; conditions: for Plant response rating, Blackgrass: Postemergence
Procedure, shortened: as §2

wheat, winter = experiment: Test C postemergence; type: in vivo, Triticum aestivum; conditions: for Plant response rating (0 to 100), Wheat: postemergence; for Plant response rating, Wheat: Postemergence, scale 0 to 100 (0 no effect, 100 complete control)
Procedure, shortened: as §2

corn [4] = experiment: Test C postemergence; type: in vivo, Zea mays; conditions: for Plant response rating, Corn: Postemergence
Procedure, shortened: as §2

giant foxtail [5] = experiment: Test C postemergence; type: in vivo, Setaria faberii; conditions: for Plant response rating, Foxtail, Giant: Postemergence
Procedure, shortened: as §2

yellow nutsedge = experiment: Test C postemergence; type: in vivo, Cyperus esculentus; conditions: for Plant response rating (0 to 100), Nutsedge, Yellow: postemergence; for Plant response rating, Nutsedge, Yellow: Postemergence, scale 0 to 100 (0 no effect, 100 complete control)
Procedure, shortened: as §2

barnyardgrass = experiment: Test C postemergence; type: in vivo, Echinochloa crus-galli; conditions: for Plant response rating, Barnyardgrass: Postemergence
Procedure, shortened: as §2

kochia = experiment: Test C postemergence; type: in vivo, Kochia scoparia; conditions: for Plant response rating, Kochia: Postemergence
Procedure, shortened: as §2

[6] = 125 g ai/ha, 0 to 100 scale where 0 is no effect and 100 is complete control
[7] = 500 g ai/ha, 0 to 100 scale, 0 no effect, 100 complete control
[8] = 62 g ai/ha, scale 0 (no effect) to 100 (complete control)
[9] = 125 g ai/ha, scale 0 (no effect) to 100 (complete control)
[10] = 250 g ai/ha, scale 0 (no effect) to 100 (complete control)
[11] = 31 g ai/ha, scale 0 to 100 (0 no effect, 100 complete control), 13 to 15 days
[12] = 62 g ai/ha, scale 0 to 100 (0 no effect, 100 complete control)
[13] = 16 g ai/ha, scale 0 to 100 (0 no effect, 100 complete control)
[14] = 16 g ai/ha, postemergence, visual rating, scale 0 to 100 (0 no effect, 100 complete control), 13 to 15 days

N#Cc1cccc(Oc2ncc(F)cn2)c1-n1cc(Cl)cn1 [Compound 73]
90: Plant response rating, Foxtail, Giant (giant foxtail [1]; 125 g ai/ha) | Plant response rating (0 to 100), Kochia (kochia; 125 g ai/ha, postemergence) | Plant response rating (0 to 100), Kochia (kochia; 250 g ai/ha, postemergence)
85: Plant response rating, Kochia (kochia; [12])
35: Plant response rating (0 to 100), Barnyardgrass (barnyardgrass; 250 g ai/ha, postemergence)
5: Corn plant response rating (corn [3]; [9]) | Plant response rating (0 to 100), Blackgrass (blackgrass; 125 g ai/ha, postemergence) | Plant response rating (0 to 100), Wheat (wheat, winter; 250 g ai/ha) | Plant response rating, Corn (corn [4]; [11]) | Plant response rating, Corn (corn [4]; [12]) | Plant response rating, Foxtail, Giant (giant foxtail [5]; [12]) | Plant response rating (0 to 100), Nutsedge, Yellow (yellow nutsedge; 125 g ai/ha) | Plant response rating (0 to 100), Nutsedge, Yellow (yellow nutsedge; 250 g ai/ha)
100: Plant response rating, Foxtail, Giant (giant foxtail [1]; 500 g ai/ha) | Crabgrass, Large plant response rating (large (Lg) crabgrass; [8]) | Crabgrass, Large plant response rating (large (Lg) crabgrass; [9]) | Crabgrass, Large plant response rating (large (Lg) crabgrass; [10]) | Plant response rating, Crabgrass, Large (large (Lg) crabgrass) | Pigweed plant response rating (pigweed; [8]) | Pigweed plant response rating (pigweed; [9]) | Pigweed plant response rating (pigweed; [10]) | Plant response rating, Pigweed (pigweed)
10: Plant response rating (0 to 100), Corn (corn [4]; 125 g ai/ha, postemergence) | Plant response rating (0 to 100), Corn (corn [4]; 250 g ai/ha, postemergence) | Plant response rating (0 to 100), Foxtail, Giant (giant foxtail [5]; 125 g ai/ha, postemergence) | Plant response rating (0 to 100), Barnyardgrass (barnyardgrass; 125 g ai/ha, postemergence)
40: Plant response rating, Corn (corn [2]; [6])
70: Corn plant response rating (corn [3]; [10])
98: Lambsquarters plant response rating (lambsquarters; [8]) | Lambsquarters plant response rating (lambsquarters; [9]) | Lambsquarters plant response rating (lambsquarters; [10])
80: Plant response rating, Corn (corn [2]; [7]) | Plant response rating, Kochia (kochia; [11])
60: Plant response rating, Lambsquarters (lambsquarters)
30: Plant response rating (0 to 100), Foxtail, Giant (giant foxtail [5]; 250 g ai/ha, postemergence)
0: Corn plant response rating (corn [3]; [8]) | Plant response rating, Corn (corn [3]) | Plant response rating, Blackgrass (blackgrass; [11]) | Plant response rating, Blackgrass (blackgrass; [12]) | Plant response rating (0 to 100), Wheat (wheat, winter; 125 g ai/ha) | Plant response rating, Wheat (wheat, winter; 31 g ai/ha, 13 to 15 days) | Plant response rating, Wheat (wheat, winter; 62 g ai/ha) | Plant response rating, Foxtail, Giant (giant foxtail [5]; [11]) | Plant response rating, Nutsedge, Yellow (yellow nutsedge; 31 g ai/ha, 13 to 15 days) | Plant response rating, Nutsedge, Yellow (yellow nutsedge; 62 g ai/ha) | Plant response rating, Barnyardgrass (barnyardgrass; [11]) | Plant response rating, Barnyardgrass (barnyardgrass; [12])
25: Plant response rating (0 to 100), Blackgrass (blackgrass; 250 g ai/ha, postemergence)

FCc1cccc(Oc2ncc(Cl)cn2)c1-n1cc(Br)cn1 [Compound 83]
65: Crabgrass, Large plant response rating (large (Lg) crabgrass; [13])
0: Corn plant response rating (corn [3]; [13]) | Corn plant response rating (corn [3]; [8]) | Plant response rating, Corn (corn [3]) | Blackgrass plant response rating (blackgrass; [14]) | Plant response rating, Wheat (wheat, winter; 31 g ai/ha, 13 to 15 days) | Plant response rating, Wheat (wheat, winter; 62 g ai/ha) | Corn plant response rating (corn [4]; [14]) | Plant response rating, Nutsedge, Yellow (yellow nutsedge; 31 g ai/ha, 13 to 15 days)
20: Plant response rating (0 to 100), Blackgrass (blackgrass; 125 g ai/ha, postemergence)
5: Plant response rating, Blackgrass (blackgrass; [11]) | Plant response rating, Blackgrass (blackgrass; [12]) | Plant response rating (0 to 100), Wheat (wheat, winter; 125 g ai/ha) | Plant response rating, Corn (corn [4]; [11]) | Plant response rating, Corn (corn [4]; [12]) | Plant response rating (0 to 100), Nutsedge, Yellow (yellow nutsedge; 125 g ai/ha) | Plant response rating, Nutsedge, Yellow (yellow nutsedge; 62 g ai/ha) | Barnyardgrass plant response rating (barnyardgrass; [14]) | Plant response rating (0 to 100), Barnyardgrass (barnyardgrass; 125 g ai/ha, postemergence) | Plant response rating, Barnyardgrass (barnyardgrass; [11]) | Plant response rating, Barnyardgrass (barnyardgrass; [12])
35: Foxtail, Giant plant response rating (giant foxtail [5]; [14]) | Plant response rating, Foxtail, Giant (giant foxtail [5]; [11])
10: Plant response rating (0 to 100), Corn (corn [4]; 125 g ai/ha, postemergence) | Plant response rating, Foxtail, Giant (giant foxtail [5]; [12])
85: Plant response rating, Crabgrass, Large (large (Lg) crabgrass) | Pigweed plant response rating (pigweed; [13])
15: Corn plant response rating (corn [3]; [9])
95: Plant response rating (0 to 100), Kochia (kochia; 125 g ai/ha, postemergence)
100: Plant response rating, Foxtail, Giant (giant foxtail [1]; 500 g ai/ha) | Crabgrass, Large plant response rating (large (Lg) crabgrass; [8]) | Crabgrass, Large plant response rating (large (Lg) crabgrass; [9]) | Lambsquarters plant response rating (lambsquarters; [13]) | Lambsquarters plant response rating (lambsquarters; [8]) | Lambsquarters plant response rating (lambsquarters; [9]) | Plant response rating, Lambsquarters (lambsquarters) | Pigweed plant response rating (pigweed; [8]) | Pigweed plant response rating (pigweed; [9]) | Plant response rating, Pigweed (pigweed)
70: Plant response rating, Kochia (kochia; [11])
60: Plant response rating, Corn (corn [2]; [7]) | Kochia plant response rating (kochia; [14])
90: Plant response rating, Foxtail, Giant (giant foxtail [1]; 125 g ai/ha) | Plant response rating, Kochia (kochia; [12])
40: Plant response rating, Corn (corn [2]; [6]) | Plant response rating (0 to 100), Foxtail, Giant (giant foxtail [5]; 125 g ai/ha, postemergence)
